Here are results for one compound from article PMC5461267, “Membrane Guanylate Cyclase catalytic Subdomain: Structure and Linkage with Calcium Sensors and Bicarbonate” (Frontiers in Molecular Neuroscience, 2017).

Where a chain is given by its changes, count along the chain named.

In assay [1] the target is T1, ROS-GC1 (rod outer segment guanylate cyclase type 1), full-length recombinant (Bos taurus, UniProt P55203, A1013R/N1009A).
T1 construct: gene GUCY2D
T1 sequence (P55203 57-1110 N1009A/A1013R): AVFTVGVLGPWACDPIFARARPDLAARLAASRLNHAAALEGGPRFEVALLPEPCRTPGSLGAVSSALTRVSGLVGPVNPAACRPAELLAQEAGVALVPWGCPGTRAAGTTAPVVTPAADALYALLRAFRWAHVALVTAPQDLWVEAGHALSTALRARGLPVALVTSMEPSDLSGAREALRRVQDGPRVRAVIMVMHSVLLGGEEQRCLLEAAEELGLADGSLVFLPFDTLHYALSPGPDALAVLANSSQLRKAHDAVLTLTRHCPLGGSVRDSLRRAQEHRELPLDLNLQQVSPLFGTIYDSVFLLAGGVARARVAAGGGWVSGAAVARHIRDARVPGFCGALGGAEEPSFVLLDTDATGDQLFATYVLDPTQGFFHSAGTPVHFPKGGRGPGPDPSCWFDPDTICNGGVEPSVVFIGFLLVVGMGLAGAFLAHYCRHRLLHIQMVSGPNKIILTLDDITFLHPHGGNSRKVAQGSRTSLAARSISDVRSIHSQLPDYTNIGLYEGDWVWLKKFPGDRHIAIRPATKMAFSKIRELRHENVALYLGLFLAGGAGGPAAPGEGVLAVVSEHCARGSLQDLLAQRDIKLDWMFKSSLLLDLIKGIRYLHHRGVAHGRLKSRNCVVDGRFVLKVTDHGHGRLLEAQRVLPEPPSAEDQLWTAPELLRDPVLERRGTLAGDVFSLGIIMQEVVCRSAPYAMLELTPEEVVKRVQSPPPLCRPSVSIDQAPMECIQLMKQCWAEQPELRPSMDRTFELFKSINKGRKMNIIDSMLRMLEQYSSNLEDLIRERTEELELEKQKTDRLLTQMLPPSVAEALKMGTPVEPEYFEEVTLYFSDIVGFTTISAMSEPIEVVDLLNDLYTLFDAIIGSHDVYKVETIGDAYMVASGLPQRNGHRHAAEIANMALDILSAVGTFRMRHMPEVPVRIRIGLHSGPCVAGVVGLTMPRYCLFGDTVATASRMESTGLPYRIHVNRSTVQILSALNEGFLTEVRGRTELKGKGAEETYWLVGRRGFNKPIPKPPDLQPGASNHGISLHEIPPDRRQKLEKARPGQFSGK
Briefly: biochemical.

For assay [2], the target named is T2, ROS-GC1 (rod outer segment guanylate cyclase type 1), full-length recombinant (Bos taurus, UniProt P55203, A1013R/D890A).
T2 construct: gene GUCY2D
T2 sequence (P55203 57-1110 D890A/A1013R): T1 sequence (P55203 57-1110 N1009A/A1013R) with D834A, A953N
Put plainly: biochemical.

Consider `O=C(O)O` [bicarbonate], for which the EC50 was roughly 25 mM in assay [1] and roughly 30 mM in assay [2].
